Experimental data published in patent US20230293535A1, “ERBB/BTK INHIBITORS” (Dizal (Jiangsu) Pharmaceutical Co., Ltd., priority 2018, published 2023).

Columns and labels:
Format in all cases: cell-based
WT EGFR cell line A-431 = assay: Cell proliferation, WT EGFR A431 (CellTiter-Glo, 72 h); settings: Homo sapiens, A-431, 72 h, A431, 72 h proliferation; read-out: EGFR WT A431 GI50;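 further: proliferation from a luminescent ATP viability signal, expressed as 100 × (treated minus time-zero plate) over (DMSO control minus time-zero plate), cells grown with 10% FBS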
Ba/F3 EGFR ASV ins cells = assay: Cell proliferation, Ba/F3 EGFR ASV ins (CellTiter-Glo, 72 h); settings: Ba/F3 EGFR, 72 h, Ba/F3 EGFR ASV ins, 72 h proliferation; read-out: EGFR Exon20 ASV insertion GI50;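 further: IL3-independent Ba/F3 cells transduced with EGFR V769_D770insASV, cellular ATP luminescence after compound exposure, growth relative to DMSO control with the day-0 baseline reading subtracted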
Experimental: WT or mutant cells were seeded in 384 well plates at appropriate concentrations with corresponding growth media supplemented with 10% FBS, for each experiment, identical plates were prepared in duplicates, and the plates were incubated overnight. On the next day, one of each duplicated plates was dosed with tested compounds at a series of concentrations, and another one of the duplicated plate was analysied for G0 value. The dosed plates were incubate for another 72 h at 37° C. with 5% CO2 and the number of viable cells in each well of the G0 plates or the dosed plates were measured by CellTiter-Glo® Luminescent Cell Viability Assay (Promega). This assay is a luminescent method for determining the number viable cells through measurement of cellular ATP concentration by detection of luciferase activity. Detection reagents (15 µl) was dispensed into per well, and the plates were incubate for 30 min at room temperature. Then, the luminescence in each well was measured using the Envision plate reader (PerkinElmer). The percentage of proliferation was calculated based on the formula: %Proliferation= 100 × (G3 value of sample well-Go value)/(G3 value of DMSO control-Go value).

Ba/F3 EGFR NPH ins cells = assay: Cell proliferation, Ba/F3 EGFR NPH ins (CellTiter-Glo, 72 h); settings: Ba/F3 EGFR, 72 h, Ba/F3 EGFR NPH ins, 72 h proliferation; read-out: EGFR Exon20 NPH insertion GI50;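 further: IL3-independent cells carrying constitutively phosphorylated EGFR, compound dilution series, viable cells quantified by ATP luminescence, growth relative to DMSO wells after subtracting pre-dosing (day 0) baseline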
EGFR L858R&T790M = molecular target: T1, EGFR L858R&T790M (Homo sapiens, UniProt P00533, L858R/T790M); assay: EGFR L858R and T790M cellular phosphorylation inhibition in NCI-H1975 (MSD); settings: NCI-H1975 cells, 4 h compound, p-EGFR(Y1068)/total EGFR; read-out: EGFR L858R and T790M mutation IC50;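 further: phosphorylated and total EGFR detected by electrochemiluminescence, cells exposed to compound in medium containing 1% FBS at 37 °C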
T1 construct: host or cells: NCI-H1975
T1 sequence (P00533 25-1210 T790M/L858R): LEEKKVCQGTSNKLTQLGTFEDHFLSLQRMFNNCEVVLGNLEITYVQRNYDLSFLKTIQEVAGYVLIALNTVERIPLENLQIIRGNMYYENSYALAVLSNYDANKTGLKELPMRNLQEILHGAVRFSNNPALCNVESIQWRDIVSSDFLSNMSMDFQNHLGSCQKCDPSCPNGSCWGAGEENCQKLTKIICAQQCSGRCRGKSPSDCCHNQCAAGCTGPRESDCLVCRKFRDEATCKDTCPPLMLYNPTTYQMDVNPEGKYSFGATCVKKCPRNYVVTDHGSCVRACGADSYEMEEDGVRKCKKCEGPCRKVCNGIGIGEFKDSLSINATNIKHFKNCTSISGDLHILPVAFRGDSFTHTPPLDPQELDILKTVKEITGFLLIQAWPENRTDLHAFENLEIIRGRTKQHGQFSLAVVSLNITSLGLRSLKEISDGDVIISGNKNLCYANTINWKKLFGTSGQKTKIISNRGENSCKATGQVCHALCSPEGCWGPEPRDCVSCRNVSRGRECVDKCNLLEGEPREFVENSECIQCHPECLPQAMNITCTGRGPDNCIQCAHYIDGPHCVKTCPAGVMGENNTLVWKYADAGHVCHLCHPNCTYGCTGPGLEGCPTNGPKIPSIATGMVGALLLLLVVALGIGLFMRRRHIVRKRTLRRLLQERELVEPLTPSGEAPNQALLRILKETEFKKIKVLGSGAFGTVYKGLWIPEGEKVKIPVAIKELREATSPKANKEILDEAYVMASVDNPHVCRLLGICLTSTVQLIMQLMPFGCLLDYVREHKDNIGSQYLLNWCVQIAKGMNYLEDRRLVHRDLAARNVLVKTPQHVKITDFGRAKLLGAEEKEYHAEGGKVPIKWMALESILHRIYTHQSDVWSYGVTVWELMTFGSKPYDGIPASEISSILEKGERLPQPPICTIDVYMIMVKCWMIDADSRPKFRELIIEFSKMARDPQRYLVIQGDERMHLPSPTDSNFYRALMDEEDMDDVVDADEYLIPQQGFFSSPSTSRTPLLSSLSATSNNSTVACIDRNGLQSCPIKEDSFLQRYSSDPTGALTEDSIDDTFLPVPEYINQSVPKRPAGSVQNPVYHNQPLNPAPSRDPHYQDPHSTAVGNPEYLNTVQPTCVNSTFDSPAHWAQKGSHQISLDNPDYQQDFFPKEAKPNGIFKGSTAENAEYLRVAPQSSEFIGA

[1] = tested on: Her2 exon 20 insertion YVMA transduced NIH-3T3 cell line; assay: Cell proliferation, Her2 YVMAins NIH-3T3 (CellTiter-Glo, 72 h); settings: Mus musculus, NIH3T3, 72 h, Her2 YVMAins cells, 72 h proliferation; read-out: Her2 Exon 20 YVMA insertion GI50;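 further: viable cells quantified by ATP luminescence, growth over a day-zero baseline plate expressed as percent of DMSO control growth, compound dilution series in 10% FBS medium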
WT EGFR = molecular target: T2, WT EGFR (Homo sapiens, UniProt P00533); assay: WT EGFR cellular phosphorylation inhibition in A-431 (hEGF stimulated, MSD); settings: A431 cells, 4 h compound, then 100 ng/ml hEGF 10 min;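 further: electrochemiluminescence read-out of EGFR Tyr1068 phosphorylation expressed as ratio to total EGFR, cells kept in medium with 1% FBS, compounds tested as a concentration series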
T2 construct: host or cells: A-431
T2 sequence (P00533 25-1210): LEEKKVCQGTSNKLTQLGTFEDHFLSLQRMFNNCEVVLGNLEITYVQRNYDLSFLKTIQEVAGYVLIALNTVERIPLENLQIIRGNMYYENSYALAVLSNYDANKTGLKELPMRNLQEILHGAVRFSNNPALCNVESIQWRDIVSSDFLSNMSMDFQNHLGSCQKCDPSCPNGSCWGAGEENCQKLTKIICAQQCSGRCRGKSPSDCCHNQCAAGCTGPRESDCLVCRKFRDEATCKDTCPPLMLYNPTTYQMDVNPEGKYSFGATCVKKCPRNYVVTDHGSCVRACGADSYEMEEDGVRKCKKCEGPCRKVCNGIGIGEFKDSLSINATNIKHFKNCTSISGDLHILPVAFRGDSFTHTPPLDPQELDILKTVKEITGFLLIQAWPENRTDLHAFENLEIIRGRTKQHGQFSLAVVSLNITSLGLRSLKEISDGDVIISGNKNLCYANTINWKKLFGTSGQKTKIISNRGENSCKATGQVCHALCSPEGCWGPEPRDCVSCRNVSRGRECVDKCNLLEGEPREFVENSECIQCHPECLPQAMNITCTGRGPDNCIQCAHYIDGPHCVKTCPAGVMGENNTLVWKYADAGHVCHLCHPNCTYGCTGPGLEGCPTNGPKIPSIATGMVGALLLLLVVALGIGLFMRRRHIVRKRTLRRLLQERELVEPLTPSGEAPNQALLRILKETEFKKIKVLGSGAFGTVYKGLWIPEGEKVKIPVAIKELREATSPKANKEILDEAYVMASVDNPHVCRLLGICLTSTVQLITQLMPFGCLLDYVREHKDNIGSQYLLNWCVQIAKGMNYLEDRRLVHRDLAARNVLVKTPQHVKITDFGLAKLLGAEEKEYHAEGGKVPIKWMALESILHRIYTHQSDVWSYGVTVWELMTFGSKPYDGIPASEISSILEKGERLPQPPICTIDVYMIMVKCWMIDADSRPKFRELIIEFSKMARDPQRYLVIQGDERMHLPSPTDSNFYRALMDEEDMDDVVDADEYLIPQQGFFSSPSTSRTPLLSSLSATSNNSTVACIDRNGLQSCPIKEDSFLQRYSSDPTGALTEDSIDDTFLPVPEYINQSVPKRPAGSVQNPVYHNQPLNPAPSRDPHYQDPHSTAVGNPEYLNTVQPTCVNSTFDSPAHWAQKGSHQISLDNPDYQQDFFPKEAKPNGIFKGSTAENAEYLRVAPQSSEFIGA
Experimental: One day before the test, WT or mutant cells were seeded in 96 well plates at appropriate concentrations with corresponding growth media supplemented with 1% FBS, and incubated overnight. The next day, tested compounds at a series of concentrations were added into each individual well of the plates, and the plates were incubated for 4 h at 37° C. with 5% CO2.
The EGFR (Y1068) phosphorylation level (activity) of cells in each well were then measured with MSD kit named “MULTI-SPOT®96 4-Spot HB Prototype EGFR Triplex [sequence]: pEGFR(Tyr1068),pEGFR(Tyr1173), Total EGFR” according to the manufacturer’s instruction (MESO SCALE DISCOVERY, Cat# N45ZB-1). The assay is an electrochemiluminescent method for determining both phosphorylated and total EGFR of cells with an MSD SECTOR® Imager and the ratio of p-EGFR/total EGFR can be generated by the machine. The Her2 (Y1248) phosphorylation level (activity) of cells in each well were measured with MSD Kit named “Phospho-ErbB2 (Tyr1248) Assay Whole Cell Lysate Kit” according to the manufacturer’s instruction (MESO SCALE DISCOVERY, Cat# K151CLD-3). The assay is an electrochemiluminescent method (MESO SCALE DISCOVERY) for determining both phosphorylated and total Her2 of cells with an MSD SECTOR® Imager and then the ratio of p-Her2/total Her2 can be generated by the machine.

[2] = molecular target: T3, human EGFR exon 20 V769_D770insASV (Homo sapiens, UniProt P00533, INS769ASV); assay: EGFR Exon20 ASV insertion cellular phosphorylation inhibition (MSD pEGFR Y1068/total EGFR); settings: Ba/F3 EGFR ASV ins cells, 4 h compound, p-EGFR(Y1068)/total EGFR;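 further: electrochemiluminescent readout on an MSD SECTOR Imager, IL3-independent transduced cells in medium with 1% FBS, compound concentration series at 37 °C and 5% CO2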
T3 construct: expressed in transfected cells; host or cells: Ba/F3 (DSMZ ACC-300), lentiviral transduction, puromycin selection, IL3 depletion
T3 sequence (P00533 with tags, fused parts or gaps INS769ASV): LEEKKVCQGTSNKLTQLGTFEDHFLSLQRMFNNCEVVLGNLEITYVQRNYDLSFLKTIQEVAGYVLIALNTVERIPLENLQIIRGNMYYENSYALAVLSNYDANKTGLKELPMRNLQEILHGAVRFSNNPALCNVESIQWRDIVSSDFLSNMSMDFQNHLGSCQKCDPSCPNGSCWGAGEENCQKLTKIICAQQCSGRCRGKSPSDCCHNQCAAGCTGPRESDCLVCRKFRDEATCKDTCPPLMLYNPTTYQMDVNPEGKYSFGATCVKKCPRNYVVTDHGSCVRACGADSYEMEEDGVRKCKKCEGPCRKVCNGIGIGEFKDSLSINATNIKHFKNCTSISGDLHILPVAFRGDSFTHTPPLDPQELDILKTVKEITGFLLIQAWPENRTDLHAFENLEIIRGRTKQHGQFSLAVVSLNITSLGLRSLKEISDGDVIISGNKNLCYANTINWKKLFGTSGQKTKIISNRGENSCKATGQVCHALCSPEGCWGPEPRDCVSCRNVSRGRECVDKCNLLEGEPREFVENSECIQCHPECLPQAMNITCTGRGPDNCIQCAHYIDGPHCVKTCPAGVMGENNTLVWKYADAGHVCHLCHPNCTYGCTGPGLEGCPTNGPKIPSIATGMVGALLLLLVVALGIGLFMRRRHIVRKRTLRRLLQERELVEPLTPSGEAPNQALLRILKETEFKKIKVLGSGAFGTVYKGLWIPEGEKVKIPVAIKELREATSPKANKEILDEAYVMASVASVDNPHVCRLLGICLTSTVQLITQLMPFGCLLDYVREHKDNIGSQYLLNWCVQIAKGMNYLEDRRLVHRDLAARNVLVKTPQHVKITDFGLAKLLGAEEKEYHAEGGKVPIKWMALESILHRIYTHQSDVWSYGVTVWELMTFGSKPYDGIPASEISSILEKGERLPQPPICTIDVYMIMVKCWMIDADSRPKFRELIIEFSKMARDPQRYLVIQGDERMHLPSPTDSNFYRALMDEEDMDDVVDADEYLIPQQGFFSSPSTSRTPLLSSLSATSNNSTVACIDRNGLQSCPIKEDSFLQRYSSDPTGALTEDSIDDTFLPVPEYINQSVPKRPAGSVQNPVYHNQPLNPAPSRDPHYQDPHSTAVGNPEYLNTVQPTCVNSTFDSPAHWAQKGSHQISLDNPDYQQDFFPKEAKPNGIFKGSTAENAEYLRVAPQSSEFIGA

[3] = molecular target: T4, human EGFR exon 20 H773_V774insNPH (Homo sapiens, UniProt P00533, INS773NPH); assay: EGFR Exon20 NPH insertion cellular phosphorylation inhibition (MSD pEGFR Y1068/total EGFR); settings: Ba/F3 EGFR NPH ins cells, 4 h compound, p-EGFR(Y1068)/total EGFR;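 further: IL3-independent Ba/F3 cells with constitutively phosphorylated EGFR, compound exposure at 37 °C under 5% CO2, electrochemiluminescent MSD measurement of the p-EGFR to total EGFR ratio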
T4 construct: host or cells: Ba/F3

[4] = tested on: NCI-H1975 EGFR L858R/T790M cells; assay: Cell proliferation, NCI-H1975 EGFR L858R/T790M (CellTiter-Glo, 72 h); settings: Homo sapiens, NCI-H1975, 72 h, NCI-H1975, 72 h proliferation; read-out: EGFR L858R and T790M mutation GI50;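 further: viable cells quantified by luciferase-based ATP luminescence, proliferation expressed relative to DMSO-treated wells (100%) after subtracting a parallel plate read at the time of dosing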
[5] = molecular target: T5, human Her2 exon 20 insertion mutation YVMA (Homo sapiens, UniProt P04626, INS775YVMA); assay: Her2 Exon 20 YVMA insertion cellular phosphorylation inhibition (MSD p-Her2 Y1248/total Her2); settings: Her2 YVMAins cells, 4 h compound;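 further: lentivirally transduced NIH-3T3 cells in 1% FBS medium, electrochemiluminescent MSD read-out, graded compound concentrations at 37 °C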
T5 construct: expressed in transfected cells; host or cells: NIH-3T3, lentiviral transduction, puromycin selection
T5 sequence (P04626 with tags, fused parts or gaps INS775YVMA): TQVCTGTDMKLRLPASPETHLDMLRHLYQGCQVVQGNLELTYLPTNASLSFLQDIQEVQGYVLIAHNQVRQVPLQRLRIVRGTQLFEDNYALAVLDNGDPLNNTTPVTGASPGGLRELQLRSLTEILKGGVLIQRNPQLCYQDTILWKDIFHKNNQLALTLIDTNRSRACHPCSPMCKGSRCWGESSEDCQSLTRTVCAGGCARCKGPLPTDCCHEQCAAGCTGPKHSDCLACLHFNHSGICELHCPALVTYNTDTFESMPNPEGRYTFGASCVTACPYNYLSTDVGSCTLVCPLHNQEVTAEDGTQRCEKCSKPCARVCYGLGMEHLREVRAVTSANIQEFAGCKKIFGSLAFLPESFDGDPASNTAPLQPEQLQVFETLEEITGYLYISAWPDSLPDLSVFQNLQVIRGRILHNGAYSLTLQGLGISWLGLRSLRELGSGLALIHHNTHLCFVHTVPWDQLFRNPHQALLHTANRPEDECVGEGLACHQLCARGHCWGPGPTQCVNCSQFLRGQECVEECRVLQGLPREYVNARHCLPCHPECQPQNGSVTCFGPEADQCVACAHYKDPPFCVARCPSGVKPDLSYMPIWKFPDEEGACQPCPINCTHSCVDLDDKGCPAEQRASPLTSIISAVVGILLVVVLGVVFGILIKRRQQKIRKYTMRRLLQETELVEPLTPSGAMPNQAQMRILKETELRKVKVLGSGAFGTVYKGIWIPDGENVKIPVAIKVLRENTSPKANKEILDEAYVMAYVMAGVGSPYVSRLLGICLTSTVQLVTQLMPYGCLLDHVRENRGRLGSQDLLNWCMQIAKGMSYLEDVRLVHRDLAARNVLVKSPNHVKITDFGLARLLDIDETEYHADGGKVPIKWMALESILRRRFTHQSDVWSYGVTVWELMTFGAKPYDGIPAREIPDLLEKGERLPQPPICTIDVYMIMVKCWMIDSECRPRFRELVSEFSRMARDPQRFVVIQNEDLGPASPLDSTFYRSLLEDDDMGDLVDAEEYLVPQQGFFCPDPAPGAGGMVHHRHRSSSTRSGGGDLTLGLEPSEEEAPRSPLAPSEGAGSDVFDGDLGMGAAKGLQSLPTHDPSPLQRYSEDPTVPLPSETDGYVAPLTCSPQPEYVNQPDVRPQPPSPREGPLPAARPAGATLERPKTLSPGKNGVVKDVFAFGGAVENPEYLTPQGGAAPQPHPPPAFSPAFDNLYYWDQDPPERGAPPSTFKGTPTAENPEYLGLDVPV

TMD-8 cells = assay: BTK (wt) cell proliferation, TMD-8 (CellTiter-Glo, 72 h); settings: Homo sapiens, TMD8, 72 h, TMD-8 cells, 72 h, CellTiter-Glo; read-out: BTK WT TMD-8 GI50;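 further: viable cells quantified by ATP-based luminescence, proliferation expressed as percent of DMSO control after subtracting a time-zero baseline plate read at dosing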
DB cells = assay: BTK (wt) cell proliferation, DB (CellTiter-Glo, 72 h); settings: Homo sapiens, DB, DB cells, CellTiter-Glo, read-out: Non-BCR activated DB GI50;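 further: DB cells in 384-well plates given a dilution series of compound, viable cells read by ATP luminescence, growth expressed versus DMSO control after subtracting a time-zero plate reading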
Ri-1 cells = assay: BTK (wt) cell proliferation, Ri-1 (CellTiter-Glo, 72 h); settings: Ri-1, 72 h, Ri-1 cells, 72 h, CellTiter-Glo; read-out: BTK WT Ri-1 GI50;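 further: viable cells quantified as cellular ATP luminescence, proliferation normalized to a time-zero plate and the DMSO control, compounds tested across a dilution series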
OCI-LY-10 cells = assay: BTK (wt) cell proliferation, OCI-LY-10 (CellTiter-Glo, 72 h); settings: Homo sapiens, OCI-Ly10, 72 h, OCI-LY-10 cells, 72 h, CellTiter-Glo; read-out: BTK WT OCI-LY-10 GI50;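 further: viable cells quantified via cellular ATP luminescence, proliferation given as percent of DMSO control after subtracting a duplicate plate read at time of dosing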

## C=CC(=O)Nc1cc(Nc2ncnc(Nc3ccccc3C(C)(C)O)n2)c(OC)cc1N1CCC[C@@H](N(C)C)C1 [Compound 1, (R)-N-(2-(3-(dimethylamino)piperidin-1-yl)-5-(4-(2-(2-hydroxypropan-2-yl)phenylamino)-1,3,5-triazin-2-ylamino)-4-methoxyphenyl)acrylamide]
WT EGFR cell line A-431
  GI50: 334 nM
Ba/F3 EGFR ASV ins cells
  GI50: 926 nM
Ba/F3 EGFR NPH ins cells
  GI50: 999 nM
EGFR L858R&T790M
  IC50: 5.2 nM
[1]
  GI50: 905 nM
WT EGFR
  IC50: 599 nM
[2]
  IC50: 386 nM
[3]
  IC50: 423 nM
[4]
  GI50: 282 nM
[5]
  IC50: 318 nM

## C=CC(=O)Nc1cc(Nc2ncnc(Nc3ccccc3C3(O)CC3)n2)c(OC)cc1N(C)CCN(C)C [Compound 2, N-(2-((2-(dimethylamino)ethyl)(methyl)amino)-5-(4-(2-(1-hydroxycyclopropyl)phenylamino)-1,3,5-triazin-2-ylamino)-4-methoxyphenyl)acrylamide]
WT EGFR cell line A-431
  GI50: 26.6 nM
Ba/F3 EGFR ASV ins cells
  GI50: 42.2 nM
Ba/F3 EGFR NPH ins cells
  GI50: 56 nM
TMD-8 cells
  GI50: 130 nM
EGFR L858R&T790M
  IC50: 0.5 nM
DB cells
  GI50: > 3000 nM
[1]
  GI50: 45.2 nM
WT EGFR
  IC50: 21.3 nM
Ri-1 cells
  GI50: 86.6 nM
[2]
  IC50: 13.4 nM
[3]
  IC50: 19.7 nM
[4]
  GI50: 13.9 nM
[5]
  IC50: 4.6 nM
OCI-LY-10 cells
  GI50: 134 nM

## C=CC(=O)Nc1cc(Nc2ncnc(Nc3cnc(F)cc3C(C)(C)O)n2)c(OC)cc1N(C)CCN(C)C [Compound 3, N-(2-((2-(dimethylamino)ethyl)(methyl)amino)-5-(4-(6-fluoro-4-(2-hydroxypropan-2-yl)pyridin-3-ylamino)-1,3,5-triazin-2-ylamino)-4-methoxyphenyl) acrylamide]
WT EGFR cell line A-431
  GI50: 69.3 nM
Ba/F3 EGFR ASV ins cells
  GI50: 252 nM
Ba/F3 EGFR NPH ins cells
  GI50: 307 nM
TMD-8 cells
  GI50: 635 nM
EGFR L858R&T790M
  IC50: 3.1 nM
DB cells
  GI50: > 3000 nM
[1]
  GI50: 183 nM
WT EGFR
  IC50: 103 nM
Ri-1 cells
  GI50: > 3000 nM
[2]
  IC50: 92.4 nM
[3]
  IC50: 296 nM
[4]
  GI50: 55.6 nM
[5]
  IC50: 51.2 nM
OCI-LY-10 cells
  GI50: 2510 nM

## C=CC(=O)Nc1cc(Nc2ncnc(Nc3cc(F)c(F)cc3C(C)(C)O)n2)c(OC)cc1N(C)CCN(C)C [Compound 4, N-(5-(4-(4,5-difluoro-2-(2-hydroxypropan-2-yl)phenylamino)-1,3,5-triazin-2-ylamino)-2-((2-(dimethylamino)ethyl)(methyl)amino)-4-methoxyphenyl)ac rylamide]
WT EGFR cell line A-431
  GI50: 15.7 nM
Ba/F3 EGFR ASV ins cells
  GI50: 20.7 nM
Ba/F3 EGFR NPH ins cells
  GI50: 32.2 nM
TMD-8 cells
  GI50: 77.1 nM
EGFR L858R&T790M
  IC50: 0.4 nM
DB cells
  GI50: > 3000 nM
[1]
  GI50: 31 nM
WT EGFR
  IC50: 11.1 nM
Ri-1 cells
  GI50: 61.4 nM
[2]
  IC50: 6.1 nM
[3]
  IC50: 8.2 nM
[4]
  GI50: 6.9 nM
[5]
  IC50: 5.5 nM
OCI-LY-10 cells
  GI50: 8.9 nM

## COc1cc(N(C)CCN(C)C)c(NC(=O)/C=C/CN(C)C)cc1Nc1ncnc(Nc2cc(F)c(F)cc2C(C)(C)O)n1 [Compound 5, (E)-N-(5-(4-(4,5-difluoro-2-(2-hydroxypropan-2-yl)phenylamino)-1,3,5-triazin-2-ylamino)-2-((2-(dimethylamino)ethyl)(methyl)amino)-4-methoxypheny 1)-4-(dimethylamino)but-2-enamide]
WT EGFR cell line A-431
  GI50: 117 nM
Ba/F3 EGFR ASV ins cells
  GI50: 234 nM
Ba/F3 EGFR NPH ins cells
  GI50: 461 nM
EGFR L858R&T790M
  IC50: 6.3 nM
[1]
  GI50: 68.9 nM
WT EGFR
  IC50: 90.3 nM
[2]
  IC50: 170 nM
[3]
  IC50: 271 nM
[4]
  GI50: 114 nM
[5]
  IC50: 36.2 nM
